{"source": "patent US4109011A", "about": "“Insecticide carbamates of N-(polychloroallyl)-amino-phenols” (priority 1975, dated 1978)", "key": {"Meloidogyne Incognita": {"test_system": "Meloidogyne Incognita", "test": "Biological activity on Meloidogyne incognita (nematocide activity, galls on tomato seedlings)", "type": "in vivo", "conditions": "vs control", "protocol": "Biological Activity on Meloidogyne Incognita (Nematoda)\nA 1:1 mixture of field earth and sand infested by new-born larvae and eggs of the nematode was treated by uniformly mixing with a hydroacetone dispersion (20% by vol. of acetone) at a concentration of 0.1% and of 0.02% of the compounds under test so as to get soil samples containing 100 ppm and 20 ppm, respectively, of active principle. The soil was introduced into plastic pots and after 5 days, 5 tomato seedlings about 15 cm high were transplanted into each of them. Fourteen days after transplantation, the roots of the seedlings extracted from the soil were examined in order to determine the degree of infestation by counting the galls which had formed.\nThe nematocide activity is expressed in Table 13 as the percentage of infestation reduction with respect to the control (seedlings transplanted into the same soil treated with a dispersion free from active principle)."}, "Pieris Brassicae": {"test_system": "Pieris Brassicae", "test": "Biological activity on Pieris brassicae larvae, sprayed cut cauliflower leaves", "type": "in vivo", "conditions": "0.1 percent, larvae, read-out: Percent of Mortality", "description": "Biological Activity on Pieris Brassicae (Lepidoptera)\nCut leaves of cauliflower were sprayed with an aqueous dispersion of compound according to this invention at a 0.1% concentration. After drying, they were infested with 5-day old larvae. The mortality percentage of the control, untreated leaves, was zero.\n(§1) To show the variation in activity from one compound to another, depending on the species used, the activities of compounds according to this invention were investigated at different concentrations, expressed as percent of active principle, on various infesting species. The mortality percentage was computed in the same way as in the preceding examples."}, "[1]": {"test_system": "Leptinotarsa Decimlineata", "test": "Biological activity on Leptinotarsa decemlineata larvae, sprayed potato seedlings", "type": "in vivo", "conditions": "read-out: Percent of Mortality", "description": "Biological Activity on Leptinotarsa Decimlineata Coleoptera\nPotato seedlings cultivated in pots were infested with 4-day old larvae and sprayed with an aqueous dispersion of the compounds according to this invention and Aminocarb as a comparison at doses of […]; respectively. The mortality percentage of the control, untreated seedlings, was zero.\nas §1"}, "Culex Pipiens": {"test_system": "Culex Pipiens", "test": "Biological activity on Culex pipiens (mosquito larvae in aqueous dispersion)", "type": "in vivo", "conditions": "24 h, read-out: Percent of Mortality", "description": "Biological Activity on Culex Pipiens (Diptera)\nMosquito larvae of the third and fourth ages were introduced into glass pots containing an aqueous dispersion of the compounds shown at 2 ppm and 0.2 ppm.\nas §1"}, "Macrosiphum Euphorbiae": {"test_system": "Macrosiphum Euphorbiae", "test": "Biological activity on Macrosiphum euphorbiae (aphides), potato seedlings sprayed with aqueous dispersion", "type": "in vivo", "conditions": "24 h, read-out: Mortality Percent", "protocol": "Biological Activity on Macrosiphum Euphorbiae (Aphides)\nPotato seedlings, cultivated in pots, were infested with adult aphide females and, after a few hours, were sprayed with an aqueous dispersion of the compounds listed in Table 6. The mortality percentage was determined 24 hours after the treatment (on control non-treated seedlings, the mortality percentage was 0).\nas §1"}, "[2]": {"test": "Acute toxicity on white rats, administered orally", "conditions": "rat, in vivo, po"}, "[3]": {"test_system": "Leptinotarsa Decimlineata", "test": "Biological activity on Leptinotarsa decemlineata larvae, sprayed potato seedlings", "type": "in vivo", "conditions": "read-out: Percent of Mortality", "remark": "listed apart in the source"}, "Spodoptera Littoralis": {"test_system": "Spodoptera Littoralis", "test": "Biological activity on Spodoptera littoralis larvae, sprayed cut tobacco leaves", "type": "in vivo", "conditions": "0.1 percent, larvae, 48 hours, read-out: Percent of Mortality", "description": "Biological Activity on Spodoptera Littoralis (Lepidoptera)\nCut tobacco leaves were sprayed with a 0.1% aqueous dispersion of compounds according to the present invention, shown in Table 12. After drying, the leaves were infested with 5-day old lepidopter larvae. The mortality percentage of the control was zero.\nas §1"}, "Tetranychus Urticae": {"test_system": "Tetranychus Urticae", "test": "Biological activity on Tetranychus urticae eggs, bean leaf discs", "type": "in vivo", "conditions": "foliar, read-out: Percent of Mortality", "description": "Biological Activity on Tetranychus Urticae (Acari)\nSmall discs of bean leaves were infested with acarus eggs and successively treated by spraying with an aqueous dispersion of a compound of this invention and Aminocarb as a comparison, at concentrations of 0.1 and 0.01%. The mortality percentage of the control, untreated discs, was zero.\nas §1"}, "Musca Domestica": {"test_system": "Musca Domestica", "test": "Biological activity on Musca domestica, topical application to adults", "type": "in vivo", "conditions": "24 h, read-out: Percent of Mortality", "protocol": "Biological Activity on Musca Domestica (Diptera)\nFour day old adults were treated by topical application through a microsyringe with 1 mm^3 of an acetonic solution of the compounds shown in such concentrations that they received doses of 5γ/insect; 2γ/insect; 0.5γ/insect of active principle. The mortality percentage 24 hours after the treatment is reported in Table 8 (mortality of insects treated with 1 mm^3 of acetone = 0)."}}, "data": [{"smiles": "CNC(=O)Oc1cccc(NCC=C(Cl)Cl)c1", "note": "[M 6370]", "values": [{"measurement": "Reduction of Infestation", "setting": "Meloidogyne Incognita; 20 ppm in soil", "result": 100, "unit": "%"}, {"measurement": "Reduction of Infestation", "setting": "Meloidogyne Incognita; 100 ppm in soil", "result": 100, "unit": "%"}, {"measurement": "mortality at 0.1 %", "setting": "Pieris Brassicae", "result": 90, "unit": "%"}, {"measurement": "mortality at 0.1 %", "setting": "[1]", "result": 100, "unit": "%"}, {"measurement": "mortality at 0.2 ppm", "setting": "Culex Pipiens", "result": 17, "unit": "%"}, {"measurement": "mortality at 2 ppm", "setting": "Culex Pipiens", "result": 94, "unit": "%"}, {"measurement": "mortality at 0.01 %", "setting": "Macrosiphum Euphorbiae", "result": 100, "unit": "%"}, {"measurement": "LD50", "setting": "[2]", "result": 100, "unit": "mg/kg"}, {"measurement": "mortality at 0.01 %", "setting": "[3]", "result": 100, "unit": "%"}]}, {"smiles": "CNC(=O)Oc1ccc(NCC=C(Cl)Cl)c(C)c1", "note": "[M 6432]", "values": [{"measurement": "mortality at 0.1 %", "setting": "Pieris Brassicae", "result": 100, "unit": "%"}, {"measurement": "mortality at 0.1 %", "setting": "Spodoptera Littoralis", "result": 100, "unit": "%"}]}, {"smiles": "CNC(=O)Oc1ccc(NCC(Cl)=C(Cl)Cl)c(C)c1", "note": "[M 6737]", "values": [{"measurement": "mortality at 0.1 %", "setting": "Pieris Brassicae", "result": 100, "unit": "%"}, {"measurement": "mortality at 0.01 %", "setting": "Tetranychus Urticae", "result": 80, "unit": "%"}, {"measurement": "mortality at 0.1 %", "setting": "Tetranychus Urticae", "result": 100, "unit": "%"}, {"measurement": "mortality at 0.1 %", "setting": "Spodoptera Littoralis", "result": 100, "unit": "%"}]}, {"smiles": "CNC(=O)Oc1ccc(C)c(NCC(Cl)=C(Cl)Cl)c1", "note": "[M 6738]", "values": [{"measurement": "mortality at 0.1 %", "setting": "[1]", "result": 100, "unit": "%"}, {"measurement": "mortality at 2 ppm", "setting": "Culex Pipiens", "result": 100, "unit": "%"}, {"measurement": "mortality at 2 µg/insect", "setting": "Musca Domestica", "result": 100, "unit": "%"}, {"measurement": "mortality at 5 µg/insect", "setting": "Musca Domestica", "result": 100, "unit": "%"}, {"measurement": "LD50", "setting": "[2]", "result": 100, "unit": "mg/kg"}, {"measurement": "mortality at 0.01 %", "setting": "[3]", "result": 100, "unit": "%"}]}, {"smiles": "CNC(=O)Oc1cccc(NCC(Cl)=C(Cl)Cl)c1", "note": "[M 6740]", "values": [{"measurement": "mortality at 0.1 %", "setting": "[1]", "result": 100, "unit": "%"}, {"measurement": "mortality at 2 ppm", "setting": "Culex Pipiens", "result": 100, "unit": "%"}, {"measurement": "mortality at 0.01 %", "setting": "[3]", "result": 100, "unit": "%"}]}]}
